In article PMC7615677 (Science translational medicine, 2023):
“And” between values parts separate entries of the source, which are not always exact repeats. Equal entries are not always repeated.

Legend:
Leishmania = test: Activity of synthesized metabolites against Leishmania; format: cell-based
T. cruzi = tested on: T. cruzi; set-up: method as in PMID 25740547; details: cited from earlier work
[1] = tested on: L. donovani intracellular amastigote stage; set-up: method as in PMID 25740547; details: intracellular amastigote stage of L. donovani; cited from earlier work
L. infantum = test: Promastigote back-transformation assay on organs of treated hamsters; format: in vivo, golden hamsters
Text: Female golden hamsters (5 per treatment group) were infected through intracardiac administration of 2x10^7 L. infantum amastigotes obtained from the spleen of a heavily infected donor hamster. […] After 5-day treatment period, followed by a 10-day wash out period, animals were sacrificed, and parasites burden assessed in the three target organs (liver, spleen, and bone-marrow). For this assessment, organs of individual animals were weighed, except for bone-marrow thus only providing a semi-quantitative evaluation only. Impression smears were Giemsa-stained for microscopic evaluation of amastigote burden, expressed as LDU (= mean number of amastigotes/cell × organ weight in mg) and the results were expressed as a percentage reduction compared to the burdens in the control group (vehicle as placebo). For evaluating the presence of viable residual burden after treatment, a promastigote back-transformation assay was conducted. This consisted of the incubation at ambient temperature of aseptically collected pieces of spleen or liver tissue in 1 mL of promastigote back-transformation medium in 24-well plates. For the bone-marrow, resected femurs were flushed with 1 mL medium. The medium consists of HOMEM pH 6.0 prepared as described elsewhere ([5]) with 10% fetal bovine serum (Gibco), 2.5% penicillin/streptomycin and 1% gentamicin (Merck). A qualitative assessment of the presence of promastigotes was made after 3 and 5 days of incubation and a score was attributed (+, ++ or +++) based on parasite density in the positive wells.
Supplementary Materials and methods
Promastigote transformation assay
For evaluating the presence of viable residual burdens after treatment, a promastigote back-transformation assay is conducted. This test consists of the incubation at ambient temperature of aseptically collected pieces of spleen or liver tissue in 1 mL of promastigote back-transformation medium in 24-well plates. For the bone-marrow, resected femurs are flushed with 1 mL medium. The medium consists of HOMEM pH 6.0 prepared as described elsewhere (1) with 10% fetal bovine serum (Gibco) and 2.5% penicillin/streptomycin and 1% gentamicin (Merck). A qualitative assessment of the presence of promastigotes is made after 3 and 5 days of incubation and a score is attributed (+, ++ or +++) based on parasite density in the positive […]
Supplementary Information on Tables
L. infantum MHOM/FR/96/LEM3323 Cl4 was originally obtained from a French HIV-positive patient (Languedoc area in Southern France) and provided by Dr. Laurence Lachaud of the Centre National de Référence des Leishmanioses (CNRL), Montpellier, France. The miltefosine and paromomycin resistant lines (LEM3323 Cl4 MIL-R and PMM-R) were obtained by successive in vitro selection cycles on intracellular amastigotes (2, 3)

[2] = 40 mg/kg qd, 5 days, individual animals 1-10

Q: With `Cc1[nH]c2nc(N)nc(C)c2c1-c1ccc(C#N)c(O)c1O` [DNDI0003578765] as the compound, how does the “activity against Leishmania, in words” value (Leishmania) read?
A: Its value is “inactive”.

Q: For `Cc1nc(N)nc2[nH]c(CO)c(-c3ccc(C#N)c4c3OCO4)c12` [DNDI0003671146], which “activity against Leishmania, in words” value (Leishmania) is on record?
A: The value was “inactive”.

Q: Which results are given for `COc1ccccc1-c1c(C)[nH]c2nc(N)nc(C)c12` [TCMDC-143610]?
A: EC50 (T. cruzi): 0.13 µM; EC50 [1]: 15.8 µM

Q: Which results are given for `CCCCCCCCCCCCCCCCOP(=O)([O-])OCC[N+](C)(C)C` [miltefosine, reference compound]?
A: emergence of viable promastigotes from recovered organs, in words (L. infantum; 40 mg/kg): more than half of those following miltefosine administration at 40 mg/kg were positive; parasite score, Bone-marrow (L. infantum; [2]): ++ (4×) and + (4×) and - (2×); parasite score, Liver (L. infantum; [2]): + (3×) and - (7×); parasite score, Spleen (L. infantum; [2]): + (5×) and ++ (4×) and -
